Experimental data as given in patent publication US10077436B2, “Beta-glucosidase enzymes for increased biomass saccharification” (Edeniq, Inc., priority 2013, dated 2018).

Key:
[1] = target: S-BG (Novozymes SP188 from Sigma), commercial beta-glucosidase; experiment: BG kinetics, cellobiose hydrolysis assay (HPLC) with glucose as competitive inhibitor, S-BG; assay type: biochemical; conditions: pH 4.8, 50° C.
Source text: The kinetic properties of beta glucosidase are important for cellulosic hydrolysis, since in commercial situations a wide range of substrate concentrations and different product inhibition conditions will be encountered. In this example, a Michaelis-Menten kinetics model was used to describe BG kinetics. To determine these kinetic properties, BG activity assays using standard substrates pNPG and cellobiose were employed. yEdQ745-BG (wild type) and yEdQ885-BG (improved), were compared with two commercial BGs, A-BG (Accellerase®) BG from Dupont) and S-BG (Novozymes SP188 from Sigma).
BG activity assay using cellobiose is the other standard assay to measure BG or cellobiase activity, which utilizes hydrolysis of cellobiose by cellobiase into two molecules of glucose, the last step of enzymatic hydrolysis of cellulose. One cellobiase unit (commonly termed as CBU) is defined as the amount of enzyme that converts […] of cellobiose or produces 2 μmol of glucose per min. Briefly, to determine BG activity, 25 μL of diluted enzyme in 50 mM citrate buffer (pH 4.8) equilibrated to 50° C. was mixed with 25 μL cellobiose (or cellobiose/glucose mixture for the kinetic study) to start the reaction. The mixture was incubated at 50° C. for 10 min, and the reaction was terminated by incubating the mixture at 99° C. for 5 min. Different methods are available to measure the glucose produced in the assays. For the kinetic study, HPLC was used.
To determine kinetic properties using cellobiose substrate, duplicate assays with cellobiose concentrations ranging from 0.47 to 15 mM and glucose concentrations of 0, 0.9, 4.5, 6.75, and 8.1 (for A-BG) or 9 (for all the other three BGs) g/L were performed. As for pNPG substrate, the range of cellobiose substrate concentration was chosen to show detectable activity at the lowest substrate concentration and saturation stage at high substrate concentration. However, in contrast to the pNPG substrate, when there was still some activity left at glucose concentration up to 36 g/L, most of the BG activity was lost at an inhibitor level of 9 g/L when cellobiose substrate was used. […] It should also be noted that colorimetric glucose assay cannot provide activity results for inhibitory glucose levels above 0.9 g/L after several trials. Therefore, HPLC measurements were used for kinetic studies using cellobiose substrate. It should be pointed out that the HPLC method may not be sensitive enough either to capture BG activity under more severe glucose inhibition conditions than 9 g/L of glucose. Moreover, theoretically there are two ways to measure BG activity by HPLC when cellobiose is used as the substrate: tracking consumption of cellobiose or tracking production of glucose. However, as shown by the example of one set of results from S-BG in Table 3, tracking glucose is problematic due to measurement sensitivity. In Table 3, A % is defined as follows and is an indicator of measurement sensitivity, since the difference of substrate or product concentrations before and after reaction was used to determine BG activity. Δ%=(start conc. of cellobiose−end conc. of cellobiose)/start conc. of cellobiose×100% (3) Δ%=(end conc. of glucose−start conc. of glucose)/start conc. of glucose×100% (4)
With increasing inhibitor (glucose) level, Δ% is decreasing. For the case of tracking glucose, Δ% was too small to be reliable when 4.5 g/L of glucose was added at the beginning. […] Thus, the approach of tracking cellobiose was chosen due to its higher detection sensitivity. In the substrate range used to determine kinetic parameters (0.47 to 30 mM for A-BG and 0.47 to 15 mM for the other three BGs), the detection sensitivity is reasonable.
A similar simultaneous nonlinear regression method based on the competitive inhibition equation expressed in Equation (1) was used to determine kinetic parameters of BG towards cellobiose. […]

[2] = test system: A-BG (Accellerase® BG from DuPont), commercial beta-glucosidase; experiment: BG kinetics, pNPG hydrolysis assay with glucose as competitive inhibitor, A-BG; assay type: biochemical
Description: The kinetic properties of beta glucosidase are important for cellulosic hydrolysis, since in commercial situations a wide range of substrate concentrations and different product inhibition conditions will be encountered. In this example, a Michaelis-Menten kinetics model was used to describe BG kinetics.
One pNPG unit is defined as the amount of enzyme that produces 1 μmol of pNP per min. Briefly, to determine BG activity, 25 μL of diluted enzyme in 200 mM sodium acetate buffer (pH 5.0) was mixed with 25 μL of the same buffer and 25 μL of RO water (or glucose solution for the kinetic study) and the mixture was preincubated at 50° C. for 5 min. The reaction was initiated by adding 25 μL of 10 mM pNPG in 200 mM sodium acetate buffer (pH 5.0) and the mixture was incubated at 50° C. for 10 min. The reaction was then terminated by adding 100 μL of 0.25 M sodium carbonate, and the amount of pNP produced was determined by measuring absorbance at 405 nm using a predetermined calibration curve.
The range of substrate concentration was chosen to show detectable activity at the lowest concentration and saturation stage at high substrate concentration.
To determine the kinetic properties, a competitive inhibition mechanism was hypothesized as proposed in the literature (Chauve et al, 2010; Krogh et al, 2010). The Michaelis-Menten equation with the competitive inhibition term can be expressed in Equation (1), where [S] is the substrate concentration (mM), [I] is the inhibitor concentration (mM), V is the rate of product formation (mM/min), Vmax is the maximal rate of product formation (mM/min), Km is the Michaelis-Menten constant and Ki is the inhibition constant. The turnover number, Kcat, can be calculated by Equation (2), where [Et] is the total amount of enzyme.
Conventionally, linearization methods can be used to determine the kinetic parameters based on Equation (1). Three common linear plots used are Lineweaver-Burke, Eadie-Hofstee and Hanes plots (Rogers and Gibon, 2009). However, these linearized versions of the Michaelis-Menten equation often produce substantial errors in parameter estimation. […] All of the activity data at different substrate levels and different inhibitor levels were fit simultaneously according to the full nonlinear equation for competitive enzyme inhibition as expressed in Equation (1). Thus, Vmax, Km and Ki can be determined simultaneously from this fitting process, and Km/Ki can then be calculated. Kcat can be obtained by Equation (2) and Kcat/Km can be calculated accordingly.
The above experimental data were fit in the competitive inhibition model as expressed in Equation (1) by simultaneous nonlinear regression.

Which Ki ([1]; cellobiose substrate, competitive inhibition) does the source give for `OC[C@H]1OC(O)[C@H](O)[C@@H](O)[C@@H]1O` (stereo partly shown) [glucose] here?
Its Ki is 3.13 ± 0.76 mM.

And the Km/Ki ([1]; inhibitor influence, Km for cellobiose / Ki for glucose)?
The Km/Ki was 0.51.

And the “loss of activity under glucose inhibition” value ([2]; 9 g/L initial glucose, 0.08 mM pNPG)?
Its value is “lost activity completely”.

What about the “maximum relative activity under glucose inhibition” value ([2]; 36 g/L initial glucose, high pNPG concentration, relative to maximum activity without glucose) of the same molecule?
The value was 1.5%.

What about the “loss of activity under glucose inhibition” value ([2]; 36 g/L initial glucose, pNPG below 1.875 mM) of the same molecule?
The value was “activity was completely lost”.

What about the Km/Ki ([2]; inhibitor influence, Km for pNPG / Ki for glucose, pH 5.0, 50° C.) of the same molecule?
Its Km/Ki is 0.22.

What about the Ki ([2]; pNPG substrate, competitive inhibition, pH 5.0, 50° C.) of the same molecule?
The Ki was 460 ± 50 µM.
